Measured values taken from patent US20230150970A1, “AMINOPYRIMIDINE DERIVATIVES AND THEIR USE AS ARYL HYDROCARBON RECEPTOR MODULATORS” (DONG-A ST CO., LTD., priority 2020, published 2023).

Target: T1, AhR (Homo sapiens, UniProt P35869)
T1 sequence (P35869 11-848): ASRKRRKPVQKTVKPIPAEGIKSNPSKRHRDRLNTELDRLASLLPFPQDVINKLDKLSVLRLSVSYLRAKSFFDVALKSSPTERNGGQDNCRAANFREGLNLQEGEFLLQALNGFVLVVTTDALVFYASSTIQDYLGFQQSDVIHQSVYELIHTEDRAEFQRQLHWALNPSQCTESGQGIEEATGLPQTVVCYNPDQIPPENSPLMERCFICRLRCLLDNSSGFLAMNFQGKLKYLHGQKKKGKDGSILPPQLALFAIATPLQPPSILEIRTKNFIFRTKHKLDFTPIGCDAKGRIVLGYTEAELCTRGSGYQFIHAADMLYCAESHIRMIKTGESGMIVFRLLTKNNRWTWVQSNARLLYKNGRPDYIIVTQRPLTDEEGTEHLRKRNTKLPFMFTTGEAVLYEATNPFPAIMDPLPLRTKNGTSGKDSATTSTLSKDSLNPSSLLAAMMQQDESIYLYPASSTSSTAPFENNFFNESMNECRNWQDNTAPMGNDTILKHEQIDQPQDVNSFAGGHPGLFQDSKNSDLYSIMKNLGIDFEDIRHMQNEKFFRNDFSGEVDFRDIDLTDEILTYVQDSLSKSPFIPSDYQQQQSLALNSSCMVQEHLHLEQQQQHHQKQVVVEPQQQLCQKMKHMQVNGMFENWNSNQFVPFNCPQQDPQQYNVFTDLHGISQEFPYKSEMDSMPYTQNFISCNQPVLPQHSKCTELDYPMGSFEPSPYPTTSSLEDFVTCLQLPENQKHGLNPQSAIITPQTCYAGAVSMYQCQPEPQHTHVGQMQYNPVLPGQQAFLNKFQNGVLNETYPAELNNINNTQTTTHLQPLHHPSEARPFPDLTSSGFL
Assay: In Vitro Assay 1: XRE-luciferase reporter assay, antagonism in human cell line (HepG2)
Details: Assay 1: AhR-Luc Human Antagonism (IC50, nM), values marked *: kynurenine 50 μM, 6 hours

IC50 [nM]	SMILES
> 1000	Clc1ccc(-c2cc(N3CCC(c4cc(Cl)cc(Cl)c4)CC3)nc(-c3cccnc3)n2)cc1 [Example 157, 4-(4-chlorophenyl)-6-(4-(3,5-dichlorophenyl)piperidin-1-yl)-2-(pyridin-3-yl)pyrimidine]
100 to 1000	Clc1ccc(-c2cc(NCC3CCCN(C4CCCCC4)C3)nc(-c3cccnc3)n2)cc1 (stereo not shown) [Example 158, 6-(4-chlorophenyl)-N-((1-cyclohexylpiperidin-3-yl)methyl)-2-(pyridin-3-yl)pyrimidin-4-amine]
100 to 1000	Clc1ccc(-c2cc(NCC3CCN(Cc4ccccc4)CC3)nc(-c3cccnc3)n2)cc1 [Example 159, N-((1-benzylpiperidin-4-yl)methyl)-6-(4-chlorophenyl)-2-(pyridin-3-yl)pyrimidin-4-amine]
> 1000	CCOC(=O)CC(=O)C1CCN(c2cc(-c3ccc(Cl)cc3)nc(-c3cccnc3)n2)CC1 [Example 160, ethyl 3-(1-(6-(4-chlorophenyl)-2-(pyridin-3-yl)pyrimidin-4-yl)piperidin-4-yl)-3-oxopropanoate]
> 1000	CCOC(=O)CC1CCN(c2cc(-c3ccc(Cl)cc3)nc(-c3cccnc3)n2)CC1 [Example 161, ethyl 2-(1-(6-(4-chlorophenyl)-2-(pyridin-3-yl)pyrimidin-4-yl)piperidin-4-yl)acetate]
10 to 100	O[C@H]1CCCN(c2cc(-c3ccc(Cl)cc3)nc(-c3cccnc3)n2)C1 [Example 163, (S)-1-(6-(4-chlorophenyl)-2-(pyridin-3-yl)pyrimidin-4-yl)piperidin-3-ol]
100 to 1000	CN(C)C1CCN(c2cc(-c3ccc(Cl)cc3)nc(-c3cccnc3)n2)C1 (stereo not shown) [Example 164, 1-(6-(4-chlorophenyl)-2-(pyridin-3-yl)pyrimidin-4-yl)-N,N-dimethylpyrrolidin-3-amine]
> 1000	CN(C)CCC1CCCN1c1cc(-c2ccc(Cl)cc2)nc(-c2cccnc2)n1 (stereo not shown) [Example 165, 2-(1-(6-(4-chlorophenyl)-2-(pyridin-3-yl)pyrimidin-4-yl)pyrrolidin-2-yl)-N,N-dimethylethan-1-amine]
10 to 100	O=C1CCN(c2cc(-c3ccc(Cl)cc3)nc(-c3cccnc3)n2)CC1 [Example 166, 1-(6-(4-chlorophenyl)-2-(pyridin-3-yl)pyrimidin-4-yl)piperidin-4-one]
> 1000	CN(c1cc(-c2ccc(Cl)cc2)nc(-c2cccnc2)n1)C1CCNCC1 [Example 167, 6-(4-chlorophenyl)-N-methyl-N-(piperidin-4-yl)-2-(pyridin-3-yl)pyrimidin-4-amine]
> 1000	CN1CCCCC1CCNc1cc(-c2ccc(Cl)cc2)nc(-c2cccnc2)n1 (stereo not shown) [Example 168, 6-(4-chlorophenyl)-N-(2-(1-methylpiperidin-2-yl)ethyl)-2-(pyridin-3-yl)pyrimidin-4-amine]
> 1000	CC(Nc1cc(-c2ccc(Cl)cc2)nc(-c2cccnc2)n1)C1CCN(C)CC1 (stereo not shown) [Example 169, 6-(4-chlorophenyl)-N-(1-(1-methylpiperidin-4-yl)ethyl)-2-(pyridin-3-yl)pyrimidin-4-amine]
10 to 100	COC(=O)CN1CCC(Nc2cc(-c3ccc(Cl)cc3)nc(-c3cccnc3)n2)CC1 [Example 171, methyl 2-(4-((6-(4-chlorophenyl)-2-(pyridin-3-yl)pyrimidin-4-yl)amino)piperidin-1-yl)acetate]
< 10	CC(OC(=O)C(F)(F)F)C1CCN(c2cc(-c3ccc(Cl)cc3)nc(-c3cccnc3)n2)CC1 (stereo not shown) [Example 172, 1-(1-(6-(4-chlorophenyl)-2-(pyridin-3-yl)pyrimidin-4-yl)piperidin-4-yl)ethyl 2,2,2-trifluoroacetate]
100 to 1000	CN1CCCC(Nc2cc(-c3ccc(Cl)cc3)nc(-c3cccnc3)n2)C1 (stereo not shown) [Example 173, 6-(4-chlorophenyl)-N-(1-methylpiperidin-3-yl)-2-(pyridin-3-yl)pyrimidin-4-amine]
100 to 1000	Cn1cc(-c2nc(N[C@@H]3CCC[C@@H]3O)cc(-c3ccc(Cl)cc3)n2)cn1 [Example 174, (1S,2R)-2-((6-(4-chlorophenyl)-2-(1-methyl-1H-pyrazol-4-yl)pyrimidin-4-yl)amino)cyclopentan-1-ol]
10 to 100	Cn1cc(-c2nc(-c3ccc(Cl)cc3)cc(N3CCC[C@@H](O)C3)n2)cn1 [Example 175, (R)-1-(6-(4-chlorophenyl)-2-(1-methyl-1H-pyrazol-4-yl)pyrimidin-4-yl)piperidin-3-ol]

IC50 [nM]	SMILES
> 1000	Cn1cc(-c2nc(-c3ccc(Cl)cc3)cc(N3CCC(O)CC3)n2)cn1 [Example 176, 1-(6-(4-chlorophenyl)-2-(1-methyl-1H-pyrazol-4-yl)pyrimidin-4-yl)piperidin-4-ol]
10 to 100	Cn1cc(-c2nc(-c3ccc(Cl)cc3)cc(N3CCC(CO)CC3)n2)cn1 [Example 177, (1-(6-(4-chlorophenyl)-2-(1-methyl-1H-pyrazol-4-yl)pyrimidin-4-yl)piperidin-4-yl)methanol]
100 to 1000	Cn1cc(-c2nc(-c3ccc(Cl)cc3)cc(N3CCC(CCO)CC3)n2)cn1 [Example 178, 2-(1-(6-(4-chlorophenyl)-2-(1-methyl-1H-pyrazol-4-yl)pyrimidin-4-yl)piperidin-4-yl)ethan-1-ol]
100 to 1000	Cn1cc(-c2nc(-c3ccc(Cl)cc3)cc(N3CCC(CCCO)CC3)n2)cn1 [Example 179, 3-(1-(6-(4-chlorophenyl)-2-(1-methyl-1H-pyrazol-4-yl)pyrimidin-4-yl)piperidin-4-yl)propan-1-ol]
> 1000	CC1CCN(c2cc(-c3ccc(Cl)cc3)nc(-c3cnn(C)c3)n2)CC1 [Example 180, 4-(4-chlorophenyl)-2-(1-methyl-1H-pyrazol-4-yl)-6-(4-methylpiperidin-1-yl)pyrimidine]
100 to 1000	CN1CCN(c2cc(-c3ccc(Cl)cc3)nc(-c3cnn(C)c3)n2)CC1 [Example 181, 4-(4-chlorophenyl)-2-(1-methyl-1H-pyrazol-4-yl)-6-(4-methylpiperazin-1-yl)pyrimidine]
100 to 1000	Cn1cc(-c2nc(-c3ccc(Cl)cc3)cc(N3CCN(CCO)CC3)n2)cn1 [Example 182, 2-(4-(6-(4-chlorophenyl)-2-(1-methyl-1H-pyrazol-4-yl)pyrimidin-4-yl)piperazin-1-yl)ethan-1-ol]
100 to 1000	Cn1cc(-c2nc(-c3ccc(Cl)cc3)cc(N3CC[C@H](O)C3)n2)cn1 [Example 183, (S)-1-(6-(4-chlorophenyl)-2-(1-methyl-1H-pyrazol-4-yl)pyrimidin-4-yl)pyrrolidin-3-ol]
100 to 1000	Cn1cc(-c2nc(-c3ccc(Cl)cc3)cc(N3CCC(C#N)CC3)n2)cn1 [Example 184, 1-(6-(4-chlorophenyl)-2-(1-methyl-1H-pyrazol-4-yl)pyrimidin-4-yl)piperidine-4-carbonitrile]
100 to 1000	Cn1cc(-c2nc(-c3ccc(Cl)cc3)cc(N3CCC[C@@H](CO)C3)n2)cn1 [Example 185, (R)-(1-(6-(4-chlorophenyl)-2-(1-methyl-1H-pyrazol-4-yl)pyrimidin-4-yl)piperidin-3-yl)methanol]
> 1000	Cn1cc(-c2nc(-c3ccc(Cl)cc3)cc(N3CC[C@@H](O)C3)n2)cn1 [Example 186, (R)-1-(6-(4-chlorophenyl)-2-(1-methyl-1H-pyrazol-4-yl)pyrimidin-4-yl)pyrrolidin-3-ol]
100 to 1000	Cn1cc(-c2nc(N[C@@H]3CC[C@H](O)C3)cc(-c3ccc(Cl)cc3)n2)cn1 [Example 187, (1S,3R)-3-((6-(4-chlorophenyl)-2-(1-methyl-1H-pyrazol-4-yl)pyrimidin-4-yl)amino)cyclopentan-1-ol]
100 to 1000	CC[C@H](CO)Nc1cc(-c2ccc(Cl)cc2)nc(-c2cnn(C)c2)n1 [Example 188, (R)-2-((6-(4-chlorophenyl)-2-(1-methyl-1H-pyrazol-4-yl)pyrimidin-4-yl)amino)butan-1-ol]
100 to 1000	Cn1cc(-c2nc(N[C@H]3CC[C@H](O)CC3)cc(-c3ccc(Cl)cc3)n2)cn1 [Example 189, Trans-4-((6-(4-chlorophenyl)-2-(1-methyl-1H-pyrazol-4-yl)pyrimidin-4-yl)amino)cyclohexan-1-ol]
10 to 100	Clc1ccc(-c2cc(N3CCC4CCCOC4C3)nc(-c3cccnc3)n2)cc1 (stereo not shown) [Example 190, 7-(6-(4-chlorophenyl)-2-(pyridin-3-yl)pyrimidin-4-yl)octahydro-2H-pyrano[2,3-c]pyridine]
10 to 100	OC1CCOC2CN(c3cc(-c4ccc(Cl)cc4)nc(-c4cccnc4)n3)CCC12 (stereo not shown) [Example 191, 7-(6-(4-chlorophenyl)-2-(pyridin-3-yl)pyrimidin-4-yl)octahydro-2H-pyrano[2,3-c]pyridin-4-ol]
100 to 1000	CC[C@@H](Nc1cc(-c2ccc(Cl)cc2)nc(-c2cccnc2)n1)[C@@H](C)O [Example 192, (2R,3R)-3-((6-(4-chlorophenyl)-2-(pyridin-3-yl)pyrimidin-4-yl)amino)pentan-2-ol]
